One experiment concerns H. pluvialis WT cells. Description: Growth of H. pluvialis WT cells on OHA plates containing norflurazon. Type of experiment: cell-based, Haematococcus pluvialis. To be noted: norflurazon 0.7 μM.
The test system of experiment [1] is H. pluvialis phytoene desaturase Leu504Arg mutants. As to the kind of experiment: Resistance to norflurazon of Leu504Arg phytoene desaturase mutants compared with wild type. Format: cell-based, Haematococcus pluvialis. To be noted: mutants with leucine to arginine substitution at position 504 of PDS. The text has this:
The amino acid substitution according to the invention from leucine to arginine at position 504 of the H. pluvialis PDS protein corresponds to the Leu437Arg substitution in Synechococcus PCC7942 (FIG. 2). For this purpose, the Leu codon “CTG” is replaced by the Arg codon “CGC” by directed mutagenesis. This mutation imparts, to the mutants, the highest known resistance factor to norflurazon. The resistance which has been conferred imparts, to the mutants according to the invention, a resistance to norflurazon which is up to 70-fold higher in comparison with the wild type. In accordance with the invention, norflurazon concentrations of […] are used as selection substance.
A portion of the phytoene desaturase 6.1 kilobases in size was isolated from a genomic DNA library of H. pluvialis and subcloned into the multiple cloning site (MCS) of the pBluescriptSK vector (stratagene) via the restriction cleavage sites XbaI and XhoI. A nucleotide substitution from CTG to CGC was carried out via directed mutagenesis with the primers PDS-Qmut-plu2 CCAAGCAGAAGTACCGCGCCTCCATGGAGGG (SEQ ID NO: 8)and PDS-Qmut-min2 CCCTCCATGGAGGCGCGGTACTTCTGCTTGG (SEQ ID NO: 9); the plasmid was named pPDS-Q2. This nucleotide substitution led to an amino acid substitution from leucine to arginine in codon 504 (FIG. 2), and confers to mutants a resistance to norflurazon.

Molecules are shown by their SMILES.

For `CNc1cnn(-c2cccc(C(F)(F)F)c2)c(=O)c1Cl` [norflurazon], the “growth of the WT cells” value in the experiment on H. pluvialis WT cells is recorded as “greatly inhibited”. For the same compound, the “resistance to norflurazon, fold higher in comparison with the wild type” value in experiment [1] is given as “up to 70 fold”.

Source of the values: patent US7939320B2, “Astaxanthine biosynthesis in eukaryotes” (Peter und Traudl Engelhorn-Stiftung zur Forderung der …, priority 2005, dated 2011).
